Three molecules from patent publication US6319702A, “Nucleic acids encoding mutant human carboxypeptidase A enzymes” (Glaxo Wellcome, Inc., priority 1993, dated 2001) can be followed below.

The target of data set [1] is T1, wild type human carboxypeptidase A1 (Homo sapiens, UniProt P15085).
T1 sequence (P15085 111-419): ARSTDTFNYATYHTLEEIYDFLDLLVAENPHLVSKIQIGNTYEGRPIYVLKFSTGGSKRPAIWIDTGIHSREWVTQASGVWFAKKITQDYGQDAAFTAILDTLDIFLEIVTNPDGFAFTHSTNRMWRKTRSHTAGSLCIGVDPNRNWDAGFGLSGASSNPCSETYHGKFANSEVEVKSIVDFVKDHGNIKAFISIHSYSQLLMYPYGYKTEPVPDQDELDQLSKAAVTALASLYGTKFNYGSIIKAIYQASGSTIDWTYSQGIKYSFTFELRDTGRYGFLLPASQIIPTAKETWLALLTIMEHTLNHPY
Nature of the data set: Enzyme kinetics of prodrugs with wild type human carboxypeptidase A1 (coupled assay). It is filed as biochemical. The text has this:
(§1) As indicated herein, the in vivo stable prodrug of the present invention should be a better substrate for a mutant enzyme than the corresponding wild type enzyme in order for the stable prodrug to be activated selectively at the tumour. […] The most relevant kinetic constant in the table is the kcat/Km, which provides an estimate of the second order rate constant for the enzyme catalyzed conversion of prodrug to methotrexate. Thus, the larger the kcat/Km, the more efficient the enzyme with a particular substrate. […] Thus, the single mutation at 268 from thr to gly converted very poor substrates in the wild type enzyme to excellent substrates in the mutant enzyme. […] Thus, the compounds are much better substrates for the mutant enzyme than the wild type enzyme which permits very specific tumor targeted activation of the nontoxic, stable prodrug to the active agent.
(§2) Kinetics were determined by a modification of the coupled assay of Kuefner, et al (1989) Biochemistry 28 2288-2297 in which the product MTX is converted by excess carboxypeptidase G to the pteroate of MTX. In this assay the reaction is followed spectrophotometrically at 315 nm; at this wavelength the change in molar absorbtivity for the coupled reaction was determined to be 9.57 mM^-1 cm^-1. Assays were performed at 25° C. in 25 mM tris-HCl, 100 mM NaCl, pH 7.4. Prodrugs were preincubated at 25° C. with buffer and 17 milliunits of Sigma #C-9658 carboxypeptidase G in 1 ml total volume. Assay was initiated with carboxypeptidase A or the appropriate mutant. Initial velocities were obtained, and standard Michaelis-Menten calculations were used to determine kinetic constants (in Biochemistry, Lehninger, A. L. 1970, Worth Publishers, Inc, NY).

For a further data set, the system named is 268gly. As to the kind of experiment: Enzyme kinetics of prodrugs with 268gly mutant of human CPA1 (coupled assay). The class given is biochemical. The conditions noted are these: 268gly; 25° C., pH 7.4.
Text: as §1, §2

A further data set relates to 268ala. As to the kind of experiment: Enzyme kinetics of prodrugs with 268ala mutant of human CPA1 (coupled assay). The conditions noted are these: 25° C., pH 7.4. The class given is biochemical.
Text: as §1, §2

The nature of data set [2]: Stability and biodistribution of prodrugs in vivo (HPLC of plasma and tissues). On the set-up: species or system mice (CD-1 nude; BALB/C where indicated). The conditions noted are these: for stability in vivo (in words): mice.
The next data set can be described thus: in vivo. The conditions noted are these: mouse, iv.
A further data set concerns mutant enzyme. As to the kind of experiment: Substrate behaviour with mutant enzyme. The class given is biochemical, human. From the text: This type of compound is not useful for ADEPT.
[3] abbreviates: CECUM, 30 min, 50 mg/kg i.p. or i.v., CD-1 nude mice.
The mark [4] stands for this setting: KIDNEY, 30 min, 50 mg/kg i.p. or i.v., CD-1 nude mice.
The mark [5] stands for this setting: LARGE INTESTINE, 30 min, 50 mg/kg i.p. or i.v., CD-1 nude mice.
Where [6] appears, read: LARGE INTESTINE, 120 min, 50 mg/kg i.p. or i.v., CD-1 nude mice.
The mark [7] stands for this setting: LIVER, 30 min, 50 mg/kg i.p. or i.v., CD-1 nude mice.
The mark [8] stands for this setting: LIVER, 120 min, 50 mg/kg i.p. or i.v., CD-1 nude mice.
Where [9] appears, read: SMALL INTESTINE, 30 min, 50 mg/kg i.p. or i.v., CD-1 nude mice.
Setting [10] is: SPLEEN, 30 min, 50 mg/kg i.p. or i.v., CD-1 nude mice.
Setting [11] is: mouse, cecum, 50 mg/kg, CECUM, 30 min, 50 mg/kg i.p. or i.v., CD-1 nude mice, read-out: stability: percentage of material observed as intact prodrug, cecum.
Setting [12] is: mouse, kidney, 50 mg/kg, KIDNEY, 30 min, 50 mg/kg i.p. or i.v., CD-1 nude mice, read-out: stability: percentage of material observed as intact prodrug, kidney.
Setting [13] is: mouse, large intestine, 50 mg/kg, LARGE INTESTINE, 30 min, 50 mg/kg i.p. or i.v., CD-1 nude mice, read-out: stability: percentage of material observed as intact prodrug, large intestine.
The mark [14] stands for this setting: mouse, large intestine, 50 mg/kg, LARGE INTESTINE, 120 min, 50 mg/kg i.p. or i.v., CD-1 nude mice, read-out: stability: percentage of material observed as intact prodrug, large intestine.
Where [15] appears, read: mouse, liver, 50 mg/kg, LIVER, 30 min, 50 mg/kg i.p. or i.v., CD-1 nude mice, read-out: stability: percentage of material observed as intact prodrug, liver (converted).
Setting [16] is: mouse, liver, 50 mg/kg, LIVER, 120 min, 50 mg/kg i.p. or i.v., CD-1 nude mice, read-out: stability: percentage of material observed as intact prodrug, liver.
Where [17] appears, read: mouse, plasma, 50 mg/kg, PLASMA, 30 min, 50 mg/kg i.p. or i.v., CD-1 nude mice, read-out: concentration of prodrug in plasma.
[18] abbreviates: mouse, plasma, 50 mg/kg, PLASMA, 30 min, 50 mg/kg i.p. or i.v., CD-1 nude mice, read-out: stability: percentage of material observed as intact prodrug, plasma.
[19] abbreviates: mouse, small intestine, 50 mg/kg, SMALL INTESTINE, 30 min, 50 mg/kg i.p. or i.v., CD-1 nude mice, read-out: stability: percentage of material observed as intact prodrug, small intestine.
[20] abbreviates: mouse, small intestine, 50 mg/kg, SMALL INTESTINE, 120 min, 50 mg/kg i.p. or i.v., CD-1 nude mice, read-out: stability: percentage of material observed as intact prodrug, small intestine.
[21] abbreviates: mouse, spleen, 50 mg/kg, SPLEEN, 30 min, 50 mg/kg i.p. or i.v., CD-1 nude mice, read-out: stability: percentage of material observed as intact prodrug, spleen.

Like-named read-outs stand apart in the source and are kept apart here.

In general, Km refers to the substrate concentration at which the rate is half of its maximum. As usually defined, the kcat is the maximal rate divided by the concentration of active sites. For the molecule `CN(Cc1cnc2nc(N)nc(N)c2n1)c1ccc(C(=O)N[C@@H](CCC(=O)O)C(=O)N[C@@H](Cc2ccccc2)C(=O)O)cc1` [Prodrug 10, N-(4-(((2,4-diamino-6-pteridinyl)methyl)methylamino)benzoyl)-L-glutam-1-yl-L-pheylalanine, reference compound], the “substrate for wild type CPA (in words)” value in data set [1] is recorded as “good substrate”. Moreover, the Michaelis constant (Km) was determined as 0.3 µM in the data set on 268gly and 0.9 µM in the data set with 268ala. Besides, the kcat in the data set on 268gly is 2.2 s⁻¹; in the data set with 268ala, 2 s⁻¹. Further, in data set [2] (setting [3]), the “concentration of prodrug in cecum” value is listed as 3.0 nmol/g. Besides, the “concentration of prodrug in kidney” value in data set [2] (setting [4]) stood at 26.9 nmol/g; in data set [2] (KIDNEY, 120 min, 50 mg/kg i.p. or i.v., CD-1 nude mice), 0.0 nmol/g. For the same molecule, the “concentration of prodrug in large intestine” value in data set [2] (setting [5]) is on record as 19.3 nmol/g; in data set [2] (setting [6]), 1.1 nmol/g. Also, the “concentration of prodrug in liver” value in data set [2] (setting [7]) was found to be 335.1 nmol/g; in data set [2] (setting [8]) it was 0.6 nmol/g. Also, in data set [2] (setting [9]), the “concentration of prodrug in small intestine” value turned out to be 17.3 nmol/g. Besides, the “concentration of prodrug in spleen” value in data set [2] (setting [10]) is 19.9 nmol/g. The “concentration of prodrug in tumor” value in data set [2] (TUMOR, 30 min, 50 mg/kg i.p. or i.v., CD-1 nude mice) is 3.0 nmol/g. The “stability in vivo (in words)” value in data set [2] (50 mg/kg) was “not stable in vivo”. The remaining at 0.5 h is 65% in data set [2] (setting [11]); 100% in data set [2] (setting [12]); 65.3% in data set [2] (setting [13]); 94.4% in data set [2] (setting [15]); 30.2% in data set [2] (setting [18]); 16% in data set [2] (setting [19]). Further, the remaining at 0.5 h in data set [2] (setting [21]) is 80.4%; in data set [2] (mouse, tumor, 50 mg/kg, TUMOR, 30 min, 50 mg/kg i.p. or i.v., CD-1 nude mice, read-out: stability: percentage of material observed as intact prodrug, tumor), 65%. Moreover, the remaining at 2 h in data set [2] (setting [14]) worked out at 21.6%; in data set [2] (setting [16]), 7.55%; in data set [2] (mouse, plasma, 50 mg/kg, PLASMA, 120 min, 50 mg/kg i.p. or i.v., CD-1 nude mice, read-out: stability: percentage of material observed as intact prodrug, plasma), 2.1%; in data set [2] (setting [20]), 0%. For the same molecule, the concentration at 0.5 h in data set [2] (setting [17]) is 17800 nM. The concentration at 2 h in data set [2] (mouse, plasma, 50 mg/kg, PLASMA, 120 min, 50 mg/kg i.p. or i.v., CD-1 nude mice, read-out: concentration of prodrug in plasma) amounted to 1100 nM.

As usually defined, the NOAEL is the highest dose or exposure tested at which no adverse effect was seen. `CN(Cc1cnc2nc(N)nc(N)c2n1)c1ccc(C(=O)N[C@@H](CCC(=O)O)C(=O)N[C@@H](Cc2cccc(C3CCCC3)c2)C(=O)O)cc1`: the “kcat (symbol ND)” value in data set [1] (Human CPA1, rate too slow to assay) is “ND (not determined; rate to slow assay. kcat ≤ 0.0005/sec.)”. Further, in the data set with 268gly, the Michaelis-Menten constant (Km) is 15 µM and the catalytic constant (kcat) worked out at 1.4 s⁻¹. Further, in the data set on 268ala, the Michaelis constant (Km) was 31 µM and the turnover number (kcat) was 0.001 s⁻¹. Moreover, in the data set “in vivo”, the MTD was greater than 40 mg/kg and the no observed adverse effect level (NOAEL) was no less than 40 mg/kg.

In the case of `Nc1nc(N)c(CCCNc2ccc(C(=O)N[C@@H](CCC(=O)O)C(=O)N[C@@H](Cc3cccc(C4CCCC4)c3)C(=O)O)cc2)c(=O)[nH]1` [Prodrug 14, N-(4-((3(2,4-diamino-1,6-dihydro-6-oxo-5-pyrimidinyl)propyl)amino)benzoyl)-L-glutam-1-yl-3-cyclopentyl-L-phenylalanine], in data set [1], the “substrate for wild type CPA (in words)” value is given as “not for the wild type enzyme”. In the data set with mutant enzyme, the “substrate for a mutant enzyme (in words)” value is given as “good substrates for a mutant enzyme”. Moreover, the “concentration of prodrug in cecum” value amounted to 4.l in data set [2] (setting [3]) and 65.3 nmol/g in data set [2] (CECUM, 120 min, 50 mg/kg i.p. or i.v., CD-1 nude mice). Also, the “concentration of prodrug in feces” value in data set [2] (FECES, 30 min, 50 mg/kg i.p. or i.v., CD-1 nude mice) is given as 535.0 nmol/g; in data set [2] (FECES, 120 min, 50 mg/kg i.p. or i.v., CD-1 nude mice) it was 932.8 nmol/g. Further, the “concentration of prodrug in kidney” value in data set [2] (setting [4]) amounted to 4.6 nmol/g. For the same molecule, the “concentration of prodrug in large intestine” value in data set [2] (setting [5]) is recorded as 9.4 nmol/g; in data set [2] (setting [6]), 34.6 nmol/g. For the same molecule, the “concentration of prodrug in liver” value in data set [2] (setting [7]) amounted to 22.5 nmol/g; in data set [2] (setting [8]), 42.1 nmol/g. Also, the “concentration of prodrug in small intestine” value was determined as 218.3 nmol/g in data set [2] (setting [9]) and 127.8 nmol/g in data set [2] (SMALL INTESTINE, 120 min, 50 mg/kg i.p. or i.v., CD-1 nude mice). Also, in data set [2] (setting [10]), the “concentration of prodrug in spleen” value is listed as 2.4 nmol/g. Also, the “stability in vivo (in words)” value in data set [2] (50 mg/kg) is “stable in vivo”. Further, the remaining at 0.5 h is 100% in data set [2] (setting [11]); 90.7% in data set [2] (mouse, feces, 50 mg/kg, FECES, 30 min, 50 mg/kg i.p. or i.v., CD-1 nude mice, read-out: stability: percentage of material observed as intact prodrug, feces (converted)); 100% in data set [2] (setting [12]); 100% in data set [2] (setting [13]); 100% in data set [2] (setting [15]); 100% in data set [2] (setting [18]). The remaining at 0.5 h in data set [2] (setting [19]) and in data set [2] (setting [21]) was 100% throughout. The remaining at 2 h in data set [2] (mouse, cecum, 50 mg/kg, CECUM, 120 min, 50 mg/kg i.p. or i.v., CD-1 nude mice, read-out: stability: percentage of material observed as intact prodrug, cecum) stood at 48.8%; in data set [2] (mouse, feces, 50 mg/kg, FECES, 120 min, 50 mg/kg i.p. or i.v., CD-1 nude mice, read-out: stability: percentage of material observed as intact prodrug, feces), 88%; in data set [2] (setting [14]), 76.8%; in data set [2] (setting [16]) it was 100%; in data set [2] (setting [20]), 100%. In data set [2] (setting [17]), the concentration at 0.5 h was found to be 1100 nM.
